Experimental data taken from patent publication US11477982B2, “2-amino-5-oxyalkyl-pyrimidine derivatives and their use for controlling undesired plant growth” (Bayer CropScience Aktiengesellschaft, priority 2017, dated 2022).

Legend:
Type in all cases: in vivo
[1] = tested on: AMARE: Amaranthus retroflexus; assay: Post-emergence herbicidal effect
In short: (§1)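 Weeds grown in sandy loam in a greenhouse and treated at the one-leaf stage, 2 to 3 weeks after sowing. Compounds formulated as WP or EC were sprayed with 0.5% additive at 600 l/ha water. Activity rated visually against untreated controls after about 3 weeks (100% = plants dead, 0% = like controls).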

LOLRI: Lolium rigidum [2] = assay: Post-emergence herbicidal effect
In short: as §1

SETVI: Setaria viridis [3] = assay: Post-emergence herbicidal effect; settings: dosage 320 g/ha
In short: as §1

[4] = tested on: ALOMY: Alopecurus myosuroides; assay: Post-emergence herbicidal effect
In short: as §1

AVEFA: Avena fatua [5] = assay: Post-emergence herbicidal effect
In short: as §1

[6] = tested on: ABUTH: Abutilon theophrasti; assay: Post-emergence herbicidal effect
In short: as §1

[7] = tested on: ECHCG: Echinochloa crus-galli; assay: Post-emergence herbicidal effect
In short: as §1

VERPE: Veronica persica [8] = assay: Post-emergence herbicidal effect; settings: dosage 320 g/ha
In short: as §1

VIOTR: Viola tricolor [9] = assay: Post-emergence herbicidal effect; settings: dosage 320 g/ha
In short: as §1

STEME: Stellaria media [10] = assay: Post-emergence herbicidal effect; settings: dosage 320 g/ha
In short: as §1

PHBPU: Ipomoea purpurea = assay: Pre-emergence herbicidal effect; settings: for Herbicidal action against PHBPU: dosage 320 g/ha
In short: (§2)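 Seeds sown in pots and covered with soil; compounds formulated as WP or EC were sprayed onto the soil surface as aqueous suspension/emulsion with 0.5% additive at 600 l/ha water. Greenhouse growth for about 3 weeks, then visual scoring in % versus untreated controls (100% = plants died, 0% = like control).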

[11] = tested on: AMARE: Amaranthus retroflexus; assay: Pre-emergence herbicidal effect; settings: for Herbicidal action against AMARE: pre-emergence, dosage 320 g/ha
In short: as §2

VERPE: Veronica persica [12] = assay: Pre-emergence herbicidal effect; settings: dosage 320 g/ha
In short: as §2

LOLRI: Lolium rigidum [13] = assay: Pre-emergence herbicidal effect; settings: for Herbicidal action against LOLRI: dosage 320 g/ha
In short: as §2

[14] = tested on: POLCO: Polygonum convolvulus; assay: Pre-emergence herbicidal effect; settings: for Herbicidal action against POLCO: dosage 320 g/ha
In short: as §2

SETVI: Setaria viridis [15] = assay: Pre-emergence herbicidal effect; settings: for Herbicidal action against SETVI: dosage 320 g/ha
In short: as §2

VIOTR: Viola tricolor [16] = assay: Pre-emergence herbicidal effect; settings: dosage 320 g/ha
In short: as §2

[17] = tested on: ALOMY: Alopecurus myosuroides; assay: Pre-emergence herbicidal effect; settings: for Herbicidal action against ALOMY: dosage 320 g/ha
In short: as §2

AVEFA: Avena fatua [18] = assay: Pre-emergence herbicidal effect; settings: dosage 320 g/ha
In short: as §2

[19] = tested on: ABUTH: Abutilon theophrasti; assay: Pre-emergence herbicidal effect; settings: for Herbicidal action against ABUTH: dosage 320 g/ha
In short: as §2

STEME: Stellaria media [20] = assay: Pre-emergence herbicidal effect; settings: for Herbicidal action against STEME: pre-emergence, dosage 320 g/ha
In short: as §2

[21] = tested on: MATIN: Matricaria inodora; assay: Pre-emergence herbicidal effect; settings: for Herbicidal action against MATIN: pre-emergence, dosage 320 g/ha
In short: as §2

[22] = tested on: ECHCG: Echinochloa crus-galli; assay: Pre-emergence herbicidal effect; settings: for Herbicidal action against ECHCG: dosage 320 g/ha
In short: as §2

HORMU: Hordeum murinum = assay: Pre-emergence herbicidal effect; settings: for Herbicidal action against HORMU: pre-emergence, dosage 320 g/ha
In short: as §2

[23] = Table 4a, dosage 20 g of a.i./ha
[24] = Table 4b, pre-emergence as titled, dosage 80 g of a.i./ha
[25] = Table 4a, pre-emergence, dosage 20 g of a.i./ha

Structure (SMILES)	Herbicidal action against AMARE ([1]; dosage 320 g/ha)	Herbicidal action against SETVI (SETVI: Setaria viridis [3])	Herbicidal action against ECHCG ([7]; dosage 320 g/ha)	Herbicidal action against VERPE (VERPE: Veronica persica [8])	Herbicidal action against VIOTR (VIOTR: Viola tricolor [9])	Herbicidal action against ABUTH ([6]; dosage 320 g/ha)	Herbicidal action against STEME (STEME: Stellaria media [10])	Herbicidal action against PHBPU (PHBPU: Ipomoea purpurea)	Herbicidal action against AMARE [11]	Herbicidal action against VERPE (VERPE: Veronica persica [12])	Herbicidal action against LOLRI (LOLRI: Lolium rigidum [13])	Herbicidal action against POLCO [14]	Herbicidal action against SETVI (SETVI: Setaria viridis [15]; pre-emergence)	Herbicidal action against VIOTR (VIOTR: Viola tricolor [16])	Herbicidal action against ALOMY ([17]; pre-emergence)	Herbicidal action against AVEFA (AVEFA: Avena fatua [18])	Herbicidal action against ABUTH [19]	Herbicidal action against STEME (STEME: Stellaria media [20])	Herbicidal action against MATIN [21]	Herbicidal action against ECHCG ([22]; pre-emergence)	also measured
Cc1ccc2c(c1)[C@H](Nc1ncc(C(C)(C)O)c(N)n1)[C@@H](C)C2 [drawing 9, reference compound]	70%	30%	10%																		Herbicidal action against LOLRI (LOLRI: Lolium rigidum [2]; dosage 80 g/ha): 0%; Herbicidal action against LOLRI (LOLRI: Lolium rigidum [2]; dosage 320 g/ha): 0%; Herbicidal action against ALOMY ([4]; dosage 80 g/ha): 0%; Herbicidal action against ALOMY ([4]; dosage 320 g/ha): 10%; Herbicidal action against AVEFA (AVEFA: Avena fatua [5]; dosage 80 g/ha): 0%; Herbicidal action against AVEFA (AVEFA: Avena fatua [5]; dosage 320 g/ha): 0%; Herbicidal action against ABUTH ([6]; dosage 80 g/ha): 30%; Herbicidal action against ECHCG ([7]; dosage 80 g/ha): 0%
Cc1ccc2c(c1)[C@H](Nc1ncc([C@H](C)O)c(N)n1)[C@@H](C)C2 (racemic) [drawing 11, reference compound]																					Herbicidal action against AMARE ([1]; dosage 80 g/ha): 80%; Herbicidal action against AVEFA (AVEFA: Avena fatua [5]; dosage 80 g/ha): 0%; Herbicidal action against AVEFA (AVEFA: Avena fatua [5]; dosage 320 g/ha): 50%
CC1Cc2ccccc2C1Nc1ncc(C(C)(C)O)cn1 (mixture of isomers) [Example 1.55]	90%	100%	100%	90%	90%	90%	90%	90%	100%	100%	100%	100%	100%	100%	90%	100%	100%	100%	100%	100%	Herbicidal action against HORMU (HORMU: Hordeum murinum): 100%
CC#CC(C)(O)c1cnc(N[C@H]2c3cc(C)ccc3C[C@@H]2C)nc1 (stereo partly shown) [Example 1.22]	90%	100%	100%	90%	90%	90%	90%	100%	100%	100%	100%	100%	100%	100%	100%	100%	100%	100%	100%	100%	Herbicidal action against HORMU (HORMU: Hordeum murinum): 100%
C#CC(C)(O)c1cnc(N[C@H]2c3cc(C)ccc3C[C@@H]2C)nc1 (stereo partly shown) [Example 1.18]	90%	90%	100%	100%	90%	90%	100%	100%	100%	100%	100%	100%	100%	100%	100%	100%	100%	100%	100%	100%	Herbicidal action against HORMU (HORMU: Hordeum murinum): 100%
Cc1nc(N[C@@H]2CCc3ccccc32)ncc1C(C)(C)O [Example 1.54]	90%	80%	100%	90%	90%	80%	90%	100%	100%	100%	100%	100%	100%	100%	100%	80%	100%	100%	100%	100%	Herbicidal action against HORMU (HORMU: Hordeum murinum): 100%
Cc1ccc2c(c1)C(Nc1ncc(C(C)(C)O)c(C)n1)CCC2 (racemic) [Example 1.52]	90%	80%	100%	90%	90%	90%	100%	100%	100%	100%	100%	100%	100%	100%	100%	100%	100%	100%	100%	100%	Herbicidal efficacy against PHBPU (PHBPU: Ipomoea purpurea; [23]): 100; Herbicidal efficacy against AMARE [11, 24]: 80; Herbicidal efficacy against LOLRI (LOLRI: Lolium rigidum [13]; [23]): 60; Herbicidal efficacy against POLCO [14, 23]: 100; Herbicidal efficacy against SETVI (SETVI: Setaria viridis [15]; [25]): 100; Herbicidal efficacy against SETVI (SETVI: Setaria viridis [15]; [24]): 80; Herbicidal efficacy against ALOMY [17, 25]: 90; Herbicidal efficacy against ALOMY [17, 24]: 90; Herbicidal efficacy against ABUTH [19, 23]: 100; Herbicidal efficacy against STEME (STEME: Stellaria media [20]; [24]): 90; Herbicidal efficacy against MATIN [21, 24]: 70; Herbicidal efficacy against ECHCG [22, 25]: 100; Herbicidal efficacy against ECHCG [22, 24]: 70; Herbicidal efficacy against HORMU (HORMU: Hordeum murinum; [24]): 90; Herbicidal action against HORMU (HORMU: Hordeum murinum): 100%
